Values quoted from earlier work, collected in US11291622B2, “Method for dyeing keratinous material, comprising the use of an organosilicon compound, a dyeing compound and a silicon oil” (Henkel AG & Co. KGaA, priority 2018, dated 2022).
Read-outs that look alike come from different tables or passages of the source.

Molecule | solubility in water (25° C.) | solubility in water (at about 25° C.)
CCN(Cc1cccc(S(=O)(=O)[O-])c1)c1ccc(C(=C2C=CC(=[N+](CC)Cc3cccc(S(=O)(=O)[O-])c3)C=C2)c2ccccc2S(=O)(=O)[O-])cc1.[Na+].[Na+] [Acid Blue 9] | more than 20 % by weight | 
Nc1cc(S(=O)(=O)[O-])cc2cc(S(=O)(=O)[O-])c(N=Nc3ccccc3)c(O)c12.[Na+].[Na+] [Acid Red 33, diantrium salt of 5-amino-4-hydroxy-3-(phenylazo)-naphthalene-2,7-disulphonate] | about 2.5 g/L | 
O=C([O-])C1=NN(c2ccc(S(=O)(=O)[O-])cc2)C(=O)C1N=Nc1ccc(S(=O)(=O)[O-])cc1.[Na+].[Na+].[Na+] (centres unmarked) [Acid Yellow 23, trisodium salt of 4,5-dihydro-5-oxo-1-(4-sulfophenyl)-4-((4-sulfophenyl)azo)-1H-pyrazole-3-carboxylic acid] |  | highly soluble in water
O=S(=O)([O-])c1ccc(N=Nc2c(O)ccc3ccccc23)cc1.[Na+] [Acid Orange 7, sodium salt of 4-[(2-hydroxy-1-naphthyl)azo]benzene sulphonate] | more than 7 g/L | 
mixture of the sodium salts of mono- and disulfonic acids of 2-(2-quinolyl)-1H-indene-1,3(2H)-dione [Acid Yellow 3] | about 20 g/L | 
